From ChEMBL document CHEMBL2203041, “Synthesis, biological assessment, and molecular modeling of racemic 7-aryl-9,10,11,12-tetrahydro-7H-benzo[7,8]chromeno[2,3-b]quinolin-8-amines as potential drugs for the treatment of Alzheimer's disease” (Eur J Med Chem, 2012)

Tested on: not listed separately
Test: in vitro
Conditions: human, HepG2 cells
Description: Cytotoxicity against human HepG2 cells assessed as cell viability at 3 uM after 24 hrs by MTT assay relative to control

Structure (SMILES) | viability at 24 h, 3 µM [%]
COc1ccc(C2c3ccc4ccccc4c3Oc3nc4c(c(N)c32)CCCC4)c(OC)c1 (racemic) | 84.2
COc1cc(C2c3ccc4ccccc4c3Oc3nc4c(c(N)c32)CCCC4)cc(OC)c1OC (racemic) | 95.6
Nc1c2c(nc3c1C(c1ccc([N+](=O)[O-])cc1)c1ccc4ccccc4c1O3)CCCC2 (racemic) | 93
Nc1c2c(nc3c1C(c1ccc(Cl)c(Cl)c1)c1ccc4ccccc4c1O3)CCCC2 (racemic) | 86.2

Molecular target: Cholinesterase (Homo sapiens, UniProt P06276)
Sequence (P06276 whole entry): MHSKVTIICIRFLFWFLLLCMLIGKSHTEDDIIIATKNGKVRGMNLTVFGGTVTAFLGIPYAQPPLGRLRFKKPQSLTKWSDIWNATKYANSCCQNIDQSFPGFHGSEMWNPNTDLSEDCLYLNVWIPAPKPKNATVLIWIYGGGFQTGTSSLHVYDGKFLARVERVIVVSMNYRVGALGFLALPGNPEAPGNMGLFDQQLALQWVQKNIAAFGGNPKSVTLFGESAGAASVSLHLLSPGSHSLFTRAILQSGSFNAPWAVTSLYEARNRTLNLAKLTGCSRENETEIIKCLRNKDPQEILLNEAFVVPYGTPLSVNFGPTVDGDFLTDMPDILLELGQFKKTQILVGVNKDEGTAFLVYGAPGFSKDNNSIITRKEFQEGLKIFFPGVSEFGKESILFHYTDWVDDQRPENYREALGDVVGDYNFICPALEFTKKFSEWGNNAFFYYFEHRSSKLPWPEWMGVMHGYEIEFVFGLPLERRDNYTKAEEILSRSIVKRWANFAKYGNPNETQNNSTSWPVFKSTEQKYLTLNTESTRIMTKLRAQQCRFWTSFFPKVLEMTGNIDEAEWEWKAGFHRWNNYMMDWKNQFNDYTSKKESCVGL
Test: not given
Conditions: not given

Structure (SMILES) | IC50 [µM]
Nc1c2c(nc3c1C(c1ccccc1)c1ccc4ccccc4c1O3)CCCC2 (racemic) | > 10
Cc1ccc(C2c3ccc4ccccc4c3Oc3nc4c(c(N)c32)CCCC4)cc1 (racemic) | > 10
Nc1c2c(nc3c1C(c1ccc(O)cc1)c1ccc4ccccc4c1O3)CCCC2 (racemic) | > 10
COc1ccccc1C1c2ccc3ccccc3c2Oc2nc3c(c(N)c21)CCCC3 (racemic) | 9.37
COc1cc(C2c3ccc4ccccc4c3Oc3nc4c(c(N)c32)CCCC4)ccc1O (racemic) | > 10
COc1ccc(C2c3ccc4ccccc4c3Oc3nc4c(c(N)c32)CCCC4)c(OC)c1 (racemic) | > 10
COc1cc(C2c3ccc4ccccc4c3Oc3nc4c(c(N)c32)CCCC4)cc(OC)c1OC (racemic) | > 10
Nc1c2c(nc3c1C(c1ccc([N+](=O)[O-])cc1)c1ccc4ccccc4c1O3)CCCC2 (racemic) | > 10
Nc1c2c(nc3c1C(c1c(Cl)cccc1Cl)c1ccc4ccccc4c1O3)CCCC2 (racemic) | > 10
Nc1c2c(nc3c1C(c1ccc(Cl)c(Cl)c1)c1ccc4ccccc4c1O3)CCCC2 (racemic) | > 10

Tested on: not listed separately
Test: in vitro
Conditions: human, HepG2 cells
Remark: another data set of the same source
Description: Cytotoxicity against human HepG2 cells assessed as cell viability at 100 uM after 24 hrs by MTT assay relative to control

Structure (SMILES) | viability at 24 h, 100 µM [%]
COc1ccc(C2c3ccc4ccccc4c3Oc3nc4c(c(N)c32)CCCC4)c(OC)c1 (racemic) | 78.9
COc1cc(C2c3ccc4ccccc4c3Oc3nc4c(c(N)c32)CCCC4)cc(OC)c1OC (racemic) | 94.5
Nc1c2c(nc3c1C(c1ccc([N+](=O)[O-])cc1)c1ccc4ccccc4c1O3)CCCC2 (racemic) | 85
Nc1c2c(nc3c1C(c1ccc(Cl)c(Cl)c1)c1ccc4ccccc4c1O3)CCCC2 (racemic) | 63.4

Molecular target: T1, Acetylcholinesterase (Electrophorus electricus, UniProt O42275)
T1 sequence (O42275 whole entry): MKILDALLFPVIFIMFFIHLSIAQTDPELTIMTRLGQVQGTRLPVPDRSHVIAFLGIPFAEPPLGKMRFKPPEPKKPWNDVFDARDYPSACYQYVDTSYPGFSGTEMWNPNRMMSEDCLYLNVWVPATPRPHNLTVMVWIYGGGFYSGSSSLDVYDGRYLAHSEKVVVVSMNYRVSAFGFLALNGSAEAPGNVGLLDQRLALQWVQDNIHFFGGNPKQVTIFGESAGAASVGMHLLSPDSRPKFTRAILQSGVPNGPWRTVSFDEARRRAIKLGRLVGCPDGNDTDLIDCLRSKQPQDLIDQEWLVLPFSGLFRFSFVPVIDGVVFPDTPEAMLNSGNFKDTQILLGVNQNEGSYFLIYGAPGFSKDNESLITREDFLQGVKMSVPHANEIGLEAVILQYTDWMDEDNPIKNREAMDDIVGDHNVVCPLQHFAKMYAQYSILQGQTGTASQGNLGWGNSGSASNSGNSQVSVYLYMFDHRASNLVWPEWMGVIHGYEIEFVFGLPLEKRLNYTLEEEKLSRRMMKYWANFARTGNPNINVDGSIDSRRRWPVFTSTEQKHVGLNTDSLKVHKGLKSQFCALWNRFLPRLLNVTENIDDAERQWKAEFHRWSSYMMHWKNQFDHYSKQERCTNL
Test: Inhibition of electric eel AChE
Conditions: not given

Structure (SMILES) | IC50 [µM]
CCOC(=O)c1c(C)nc2nc3c(c(N)c2c1-c1ccc(F)cc1)CCCC3 | 0.71

Tested on: not listed separately
Test: Neurotoxicity in Wistar rat primary cortical neurons assessed as decrease in cell viability at 50 uM by XTT assay
Type: toxicity, cell-based
Conditions: cerebral cortex neuron

Structure (SMILES) | Activity
COc1ccc(C2c3ccc4ccccc4c3Oc3nc4c(c(N)c32)CCCC4)c(OC)c1 (racemic) | Non-toxic
COc1cc(C2c3ccc4ccccc4c3Oc3nc4c(c(N)c32)CCCC4)cc(OC)c1OC (racemic) | Non-toxic
Nc1c2c(nc3c1C(c1ccc([N+](=O)[O-])cc1)c1ccc4ccccc4c1O3)CCCC2 (racemic) | Non-toxic
Nc1c2c(nc3c1C(c1ccc(Cl)c(Cl)c1)c1ccc4ccccc4c1O3)CCCC2 (racemic) | Non-toxic

Tested on: not listed separately
Test: in vitro
Conditions: human, HepG2 cells
Remark: another data set of the same source
Description: Cytotoxicity against human HepG2 cells assessed as cell viability at 1 uM after 24 hrs by MTT assay relative to control

Structure (SMILES) | viability at 24 h, 1 µM [%]
COc1ccc(C2c3ccc4ccccc4c3Oc3nc4c(c(N)c32)CCCC4)c(OC)c1 (racemic) | 97.8
COc1cc(C2c3ccc4ccccc4c3Oc3nc4c(c(N)c32)CCCC4)cc(OC)c1OC (racemic) | 96.5
Nc1c2c(nc3c1C(c1ccc([N+](=O)[O-])cc1)c1ccc4ccccc4c1O3)CCCC2 (racemic) | 95
Nc1c2c(nc3c1C(c1ccc(Cl)c(Cl)c1)c1ccc4ccccc4c1O3)CCCC2 (racemic) | 97.5

Molecular target: Acetylcholinesterase (Homo sapiens, UniProt P22303)
Sequence (P22303 whole entry): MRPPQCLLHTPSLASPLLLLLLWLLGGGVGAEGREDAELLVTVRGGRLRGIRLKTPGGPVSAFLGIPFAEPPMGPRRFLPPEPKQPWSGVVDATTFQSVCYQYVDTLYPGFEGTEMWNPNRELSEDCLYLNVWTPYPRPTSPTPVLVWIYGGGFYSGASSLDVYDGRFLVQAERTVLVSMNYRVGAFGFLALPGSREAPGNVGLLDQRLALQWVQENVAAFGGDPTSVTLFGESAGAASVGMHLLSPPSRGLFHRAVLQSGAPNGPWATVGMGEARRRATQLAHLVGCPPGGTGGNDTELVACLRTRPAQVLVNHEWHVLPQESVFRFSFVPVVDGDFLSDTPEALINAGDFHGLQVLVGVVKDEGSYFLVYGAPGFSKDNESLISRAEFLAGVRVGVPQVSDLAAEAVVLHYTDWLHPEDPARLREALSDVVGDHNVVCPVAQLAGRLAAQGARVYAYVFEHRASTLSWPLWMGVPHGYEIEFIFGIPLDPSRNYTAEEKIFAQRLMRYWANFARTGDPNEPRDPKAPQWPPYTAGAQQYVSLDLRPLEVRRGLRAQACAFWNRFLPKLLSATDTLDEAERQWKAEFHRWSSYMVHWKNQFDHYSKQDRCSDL
Test: not given
Conditions: not given

Structure (SMILES) | IC50 [µM]
Nc1c2c(nc3c1C(c1ccccc1)c1ccc4ccccc4c1O3)CCCC2 (racemic) | 0.3
Cc1ccc(C2c3ccc4ccccc4c3Oc3nc4c(c(N)c32)CCCC4)cc1 (racemic) | 0.4
Nc1c2c(nc3c1C(c1ccc(O)cc1)c1ccc4ccccc4c1O3)CCCC2 (racemic) | 7.83
COc1ccccc1C1c2ccc3ccccc3c2Oc2nc3c(c(N)c21)CCCC3 (racemic) | 4.53
COc1cc(C2c3ccc4ccccc4c3Oc3nc4c(c(N)c32)CCCC4)ccc1O (racemic) | 0.33
COc1ccc(C2c3ccc4ccccc4c3Oc3nc4c(c(N)c32)CCCC4)c(OC)c1 (racemic) | 0.37
COc1cc(C2c3ccc4ccccc4c3Oc3nc4c(c(N)c32)CCCC4)cc(OC)c1OC (racemic) | 3.51
Nc1c2c(nc3c1C(c1ccc([N+](=O)[O-])cc1)c1ccc4ccccc4c1O3)CCCC2 (racemic) | 5.74
Nc1c2c(nc3c1C(c1c(Cl)cccc1Cl)c1ccc4ccccc4c1O3)CCCC2 (racemic) | 4.01
Nc1c2c(nc3c1C(c1ccc(Cl)c(Cl)c1)c1ccc4ccccc4c1O3)CCCC2 (racemic) | 5.07

Molecular target: T1, Acetylcholinesterase
Test: Mixed-type inhibition of electric eel AChE using acetylthiocholine iodide as substrate by Ellman's method
Conditions: not given

Structure (SMILES) | Ki [µM]
COc1cc(C2c3ccc4ccccc4c3Oc3nc4c(c(N)c32)CCCC4)ccc1O (racemic) | 0.081

Tested on: not listed separately
Test: Neurotoxicity in Wistar rat primary cortical neurons assessed as decrease in cell viability at 100 uM by XTT assay
Type: toxicity, cell-based
Conditions: cerebral cortex neuron

Structure (SMILES) | Activity [%]
COc1ccc(C2c3ccc4ccccc4c3Oc3nc4c(c(N)c32)CCCC4)c(OC)c1 (racemic) | 40
Nc1c2c(nc3c1C(c1ccc([N+](=O)[O-])cc1)c1ccc4ccccc4c1O3)CCCC2 (racemic) | 40
Nc1c2c(nc3c1C(c1ccc(Cl)c(Cl)c1)c1ccc4ccccc4c1O3)CCCC2 (racemic) | 40

Tested on: not listed separately
Test: in vitro
Conditions: human, HepG2 cells
Remark: another data set of the same source
Description: Cytotoxicity against human HepG2 cells assessed as cell viability at 30 uM after 24 hrs by MTT assay relative to control

Structure (SMILES) | viability at 24 h, 30 µM [%]
COc1ccc(C2c3ccc4ccccc4c3Oc3nc4c(c(N)c32)CCCC4)c(OC)c1 (racemic) | 76.9
COc1cc(C2c3ccc4ccccc4c3Oc3nc4c(c(N)c32)CCCC4)cc(OC)c1OC (racemic) | 96.6
Nc1c2c(nc3c1C(c1ccc([N+](=O)[O-])cc1)c1ccc4ccccc4c1O3)CCCC2 (racemic) | 90.3
Nc1c2c(nc3c1C(c1ccc(Cl)c(Cl)c1)c1ccc4ccccc4c1O3)CCCC2 (racemic) | 68.1

Tested on: not listed separately
Test: Inhibition of voltage-dependent Ca2+ channel
Conditions: concentration not given here

Structure (SMILES) | inhibition [%]
CCOC(=O)c1c(C)nc2nc3c(c(N)c2c1-c1ccc(F)cc1)CCCC3 | 38
CCOC(=O)C1=C(C)Oc2nc3c(c(N)c2C1c1ccc(OC)cc1)CCCC3 (stereo not drawn) | 50

Tested on: HepG2
Test: Cytotoxicity against human HepG2 cells assessed as cell viability after 24 hrs by MTT assay relative to control
Type: cell-based
Conditions: hepg2, 24 h

Structure (SMILES) | Activity
COc1ccc(C2c3ccc4ccccc4c3Oc3nc4c(c(N)c32)CCCC4)c(OC)c1 (racemic) | Dose-dependent effect
COc1cc(C2c3ccc4ccccc4c3Oc3nc4c(c(N)c32)CCCC4)cc(OC)c1OC (racemic) | Dose-dependent effect
Nc1c2c(nc3c1C(c1ccc([N+](=O)[O-])cc1)c1ccc4ccccc4c1O3)CCCC2 (racemic) | Dose-dependent effect
Nc1c2c(nc3c1C(c1ccc(Cl)c(Cl)c1)c1ccc4ccccc4c1O3)CCCC2 (racemic) | Dose-dependent effect

Tested on: not listed separately
Test: in vitro
Conditions: human, HepG2 cells
Remark: another data set of the same source
Description: Cytotoxicity against human HepG2 cells assessed as cell viability at 10 uM after 24 hrs by MTT assay relative to control

Structure (SMILES) | viability at 24 h, 10 µM [%]
COc1ccc(C2c3ccc4ccccc4c3Oc3nc4c(c(N)c32)CCCC4)c(OC)c1 (racemic) | 85.3
COc1cc(C2c3ccc4ccccc4c3Oc3nc4c(c(N)c32)CCCC4)cc(OC)c1OC (racemic) | 96.4
Nc1c2c(nc3c1C(c1ccc([N+](=O)[O-])cc1)c1ccc4ccccc4c1O3)CCCC2 (racemic) | 92.6
Nc1c2c(nc3c1C(c1ccc(Cl)c(Cl)c1)c1ccc4ccccc4c1O3)CCCC2 (racemic) | 79.9

Tested on: not listed separately
Test: cells
Conditions: Rattus norvegicus, Wistar, Cerebral cortex neuron, 24 h
Description: Neuroprotective activity in 20 uM rotenone and 10 uM oligomycin-treated Wistar rat primary cortical neurons assessed as increase in cell viability after 24 hrs by XTT assay

Structure (SMILES) | EC50 [µM]
COc1ccc(C2c3ccc4ccccc4c3Oc3nc4c(c(N)c32)CCCC4)c(OC)c1 (racemic) | 11.1
COc1cc(C2c3ccc4ccccc4c3Oc3nc4c(c(N)c32)CCCC4)cc(OC)c1OC (racemic) | 4.38
Nc1c2c(nc3c1C(c1ccc([N+](=O)[O-])cc1)c1ccc4ccccc4c1O3)CCCC2 (racemic) | 2.36
Nc1c2c(nc3c1C(c1ccc(Cl)c(Cl)c1)c1ccc4ccccc4c1O3)CCCC2 (racemic) | 3.28

Tested on: not listed separately
Test: in vitro
Conditions: human, HepG2 cells
Remark: another data set of the same source
Description: Cytotoxicity against human HepG2 cells assessed as cell viability at 300 uM after 24 hrs by MTT assay relative to control

Structure (SMILES) | viability at 24 h, 300 µM [%]
COc1ccc(C2c3ccc4ccccc4c3Oc3nc4c(c(N)c32)CCCC4)c(OC)c1 (racemic) | 74.8
COc1cc(C2c3ccc4ccccc4c3Oc3nc4c(c(N)c32)CCCC4)cc(OC)c1OC (racemic) | 93.5
Nc1c2c(nc3c1C(c1ccc([N+](=O)[O-])cc1)c1ccc4ccccc4c1O3)CCCC2 (racemic) | 72.1
Nc1c2c(nc3c1C(c1ccc(Cl)c(Cl)c1)c1ccc4ccccc4c1O3)CCCC2 (racemic) | 61

Tested on: not listed separately
Test: Permeability of the compound by PAMPA
Type: ADME
Conditions: read-out: permeability

Structure (SMILES) | Papp [×10⁻⁶ cm/s]
COc1ccc(C2c3ccc4ccccc4c3Oc3nc4c(c(N)c32)CCCC4)c(OC)c1 (racemic) | 14.6
COc1cc(C2c3ccc4ccccc4c3Oc3nc4c(c(N)c32)CCCC4)cc(OC)c1OC (racemic) | 23.4
Nc1c2c(nc3c1C(c1ccc([N+](=O)[O-])cc1)c1ccc4ccccc4c1O3)CCCC2 (racemic) | 16.1
Nc1c2c(nc3c1C(c1ccc(Cl)c(Cl)c1)c1ccc4ccccc4c1O3)CCCC2 (racemic) | 12.3

Tested on: not listed separately
Test: Antioxidant activity assessed as AAPH-induced radical scavenging activity incubated for 15 mins prior to AAPH induction measured every 1 min for 80 mins by ORAC-FL assay relative to trolox
Type: functional
Conditions: not given

Structure (SMILES) | fold change (FC)
COc1cc(C2c3ccc4ccccc4c3Oc3nc4c(c(N)c32)CCCC4)ccc1O (racemic) | 1.5
